Results taken from patent US5928933A, “Process for the enzymatic resolution of N-(alkoxycarbonyl)-4-ketoproline alkyl esters or N-(alkoxycarbonyl)-4-hydroxyproline alkyl esters using Candida antarctica lipase B” (priority 1998, dated 1999).
Where two headings read alike, the source gives them in different places. One block for each compound: values may come before it.

Tests used:
[1] = target: T1, Candida antartica lipase fraction B (CALB) (Moesziomyces antarcticus, UniProt P41365); type: biochemical
T1 construct: purchased Boehringer Mannheim CHIRAZYME L-2
T1 sequence (P41365 26-342): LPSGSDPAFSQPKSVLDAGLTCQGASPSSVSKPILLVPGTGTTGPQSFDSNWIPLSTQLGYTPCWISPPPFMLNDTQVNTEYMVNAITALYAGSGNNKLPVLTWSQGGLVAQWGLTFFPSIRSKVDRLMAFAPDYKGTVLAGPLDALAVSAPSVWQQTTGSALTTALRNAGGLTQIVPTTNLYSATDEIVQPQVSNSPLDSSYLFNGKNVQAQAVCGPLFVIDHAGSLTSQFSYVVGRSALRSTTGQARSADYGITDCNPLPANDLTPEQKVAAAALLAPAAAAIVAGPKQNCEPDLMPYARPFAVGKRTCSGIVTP
Protocol: Using CALB for the diastereomeric resolution of five of the six possible pairs of diastereomers of N-(methoxycarbonyl)-4-hydroxyproline methyl esters produced the diastereomeric excesses at the indicated conversions listed in Table 1 below.
(§1) A 3.0 mL aqueous solution containing 50 mM N-(methoxycarbonyl)-trans-4-hydroxy-L-proline methyl ester and 50 mM N-(methoxycarbonyl)-cis-4-hydroxy-D-proline methyl ester in 0.100M potassium phosphate (pH 7.0) was mixed with 2.1 mg/mL of Candida antartica lipase fraction B at 25° C. The reaction was analyzed by removal of a 0.200 mL sample and mixing with an equivalent volume of 0.100M propionic acid (HPLC internal standard) in water. The resulting solution was filtered through a 10K molecular weight cut-off filter to remove the enzyme and the filtrate analyzed by high pressure liquid chromatography on a HPX-87H column (Bio-Rad, 30 cm×7.8 mm) to determine the percent conversion of each isomer of the diastereomeric mixture, and the diastereomeric excess of the N-(methoxycarbonyl)-cis-4-hydroxy-D-proline methyl ester.
A 2.0 mL aqueous solution containing 50 mM N-(methoxycarbonyl)-trans-4-hydroxy-L-proline methyl ester and 50 mM N-(methoxycarbonyl)-cis-4-hydroxy-D-proline methyl ester in 0.100M potassium phosphate (pH 7.0) was mixed with 403 mg of immobilized Candida antartica lipase fraction B (Boehringer Mannheim, CHIRAZYME® L-2, c.-f., C2, lyo.) at 31° C. The reaction was analyzed by mixing the entire reaction mixture with an equivalent volume of 0.100M propionic acid (HPLC internal standard) in water […]. An aliquot of the resulting solution was filtered through a 10K molecular weight cut-off filter to remove the enzyme and the filtrate analyzed by high pressure liquid chromatography on a HPX-87H column (Bio-Rad, 30 cm×7.8 mm) to determine the percent conversion of each isomer of the distereomeric mixture, and the diastereomeric excess of the N-(methoxycarbonyl)-cis-4-hydroxy-D-proline methyl ester. After 7 h, a 94% diastereomeric excess of N-(methoxycarbonyl)-cis-4-hydroxy-D-proline methyl ester was obtained at 49% conversion of the diastereomeric mixture (3.2% N-(methoxycarbonyl)-trans-4-hydroxy-L-proline methyl ester remained).
as §1, with “A 5.0” for “A 3.0”, “containing 51” for “containing 50”, “and 51” for “and 50”, “with 50” for “with 2.1”, “the N-(methoxycarbonyl)-trans-4-hydroxy-D-prolinemethyl” for “the N-(methoxycarbonyl)-cis-4-hydroxy-D-proline methyl”
A 5.0 mL aqueous solution containing 50 mM N-(methoxycarbonyl)-cis-4-hydroxy-D-proline methyl ester and 50 mM N-(methoxycarbonyl)-cis-4-hydroxy-L-proline methyl ester in 0.100M potassium phosphate (pH 7.0) and 50 mg/mL of Candida antartica lipase fraction B was mixed at 25° C. The reaction was analyzed by removal of two 0.200 mL aliquots at pre-determined times. One 0.200 mL aliquot was mixed with an equivalent volume of 0.100M propionic acid (HPLC internal standard) in water, and the resulting solution filtered through a 10K molecular weight cut-off filter to remove the enzyme. The filtrate was then analyzed by high pressure liquid chromatography on a HPX-87H column (Bio-Rad, 30 cm×7.8 mm) to determine the total percent conversion of both the D- and L-proline isomers of the N-(methoxycarbonyl)-cis-4-hydroxyproline methyl esters. […]

[2] = target: T1, Candida antartica lipase fraction B (CALB); type: biochemical; conditions: 0.20m succinate, 5 h, pH 6
Protocol: (§2) Reacting a 0.10M solution of the 1:1 mixture of KDP(MEMC) and KLP(MEMC) in 0.20M succinate (pH 6.0) at 25° C. for 5 h with approximately 1-3 mg/mL of Candida antartica lipase fraction B (CALB) produced a 95% ee (substrate) of KDP(MEMC) at 51% conversion. […] The calculated enantioselectivity (E) at 51% conversion was E=81.
(§3) The enzymatic hydrolysis reaction of KDP(MEMC) and KLP(MEMC) using CALB (described above) was repeated at pH 5.0 in 0.20M acetate buffer (Example 2), and a 100% ee (substrate) of the D-isomer was obtained at 51% conversion (E=>1000); the reaction rate was approximately 50% of the rate at pH 6.0, and the slight loss of the D-isomer at pH 5.0 was again observed in the absence of added enzyme (95% recovery at pH 5.0 after 24 h with no enzyme).
The procedure described in Example I was repeated using Candida antartica lipase fraction B (CALB), except that the reaction was run in 0.200M sodium cetate (pH 5.0) instead of the 0.20M sodium succinate buffer (pH 6.0) used for Candida antartica lipase fraction B in Example 1. Aqueous solutions (5.0 mL) containing varying concentrations of a racemic mixture of N-(methoxycarbonyl)-4-keto-D,L-proline methyl ester and CALB were mixed at 15° C., 25° C., 35° C. or 45° C.
An aqueous solution (5.0 mL) containing 25 mM N-(methoxycarbonyl)-4-keto-Dproline methyl ester and 25 mM N-(methoxycarbonyl)-4-keto-L-proline methyl ester in 0.200M sodium acetate (pH 5.0) was mixed with 2.5 g of immobilized Candida antartica lipase fraction B (Boehringer Mannheim, CHIRAZYME® L-2, c.-f., C2, lyo.) at 25° C. […] The dichloromethane extract was then analyzed by chiral gas chromatography on a Chiraldex G-TA column (Advanced Separation Technologies, Inc., 50 m×0.32 mm ID) to determine the amounts of the unreacted D- and L-isomers. After 31 h, an 85% enantiomeric excess of N-(methoxycarbonyl)-4-keto-D-proline methyl ester was obtained at 41% conversion of the racemic mixture.
A 200 mL aqueous solution containing 0.200M sodium acetate (pH 5.0), 1.3325 g of Candida antartica lipase fraction B, and 4.02 g of racemic N-(methoxycarbonyl)-4-keto-D,L-proline methyl ester (100 mM) was stirred at 25° C. After 24 h, an 96% enantiomeric excess of N-(methoxycarbonyl)-4-keto-D-proline methyl ester was obtained at 50% conversion of the racemic mixture. The reaction mixture was filtered using a 10,000 MWCO membrane filter (Amicon) to remove the enzyme catalyst, and the filtrate extracted with three 200 mL portions of dichloromethane. The combined organic extracts were dried over magnesium sulfate, filtered, and the dichloromethane removed from the filtrate by rotary evaporation at reduced pressure. Residual dichloromethane was removed from the resulting colorless oil at high vacuum (50 millitorr) to produce N-(methoxycarbonyl)-4-keto-D-proline methyl ester as a white solid (1.99 g, 99% isolated yield, 99% purity (by GC), 97% ee).
An aqueous solution (2.0 mL) containing 50 mM N-(ethoxycarbonyl)-4-keto-D-proline ethyl ester and 50 mM N-(ethoxycarbonyl)-4-keto-L-proline ethyl ester in 0.200M sodium acetate (pH 5.0) and 30 mg/mL of Candida antartica lipase fraction B was mixed at 25° C. […] The dichloromethane extract was then analyzed by chiral gas chromatography on a Chiraldex G-TA column (Advanced Separation Technologies, Inc., 50 m×0.32 mm ID) to determine the amounts of the unreacted D- and L-isomers. After 24 h, a 100% enantiomeric excess of N-(ethoxycarbonyl)-4-keto-D-proline ethyl ester was obtained at 51% conversion of the racemic mixture.
An aqueous solution (1.0 mL) containing 19 mM of N-(2-phenylacetyl)-4-keto-D-proline methyl ester and 19 mM of N-(2-phenylacetyl)-4-keto-L-proline methyl ester in 0.200M sodium acetate (pH 5.0) and 25 mg/mL of Candida antartica lipase fraction B was mixed at 25° C. […]

[3] = Stability of aqueous solutions of the esters in the absence of enzyme; type: physicochemical; conditions: for isomer lost without added enzyme: pH 6.0, identical reaction conditions (0.20M succinate, 25° C.), 5 h
Protocol: as §2, §3
The pH of the reaction mixture is also chosen to optimize the reaction rate, the stability of the enzyme catalyst activity, and the stability of the ketoproline or hydroxyproline derivatives. The stability of aqueous solutions of N-(alkoxy-carbonyl)-4-ketoproline alkyl esters or N-(alkoxycarbonyl)-4-hydroxyproline alkyl esters were dependent on pH. […] For resolution of mixtures of N-(alkoxycarbonyl)-4-keto-D,L-proline alkyl esters, a pH range of from 3.0 to 6.0 is preferred, and a pH range of from 4.0 to 5.0 is most preferred. For resolution of diastereomeric mixtures of N-(alkoxycarbonyl)-4-hydroxy-proline alkyl esters, a pH range of from 3.0 to 7.5 is preferred, and a pH range of from 6.0 to 7.0 is most preferred.

[4] = target: T1, Candida antartica lipase fraction B (CALB); assay: Relative rates of hydrolysis of N-(alkoxycarbonyl)-trans-4-hydroxy-L-proline methyl esters by CALB; type: biochemical; conditions: 50 mM substrate, 3.0 mg/mL CALB, 25° C.
Protocol: A 2.0 mL aqueous solution containing 50 mM N-(methoxycarbonyl)-trans-4-hydroxy-L-proline methyl ester, or 50 mM N-(ethoxycarbonyl)-trans-4-hydroxy-L-proline methyl ester, or 50 mM N-(tert-butoxycarbonyl)-trans-4-hydroxy-L-proline methyl ester in 0.100M potassium phosphate (pH 7.0) and 3.0 mg/mL of Candida antartica lipase fraction B was mixed at 25° C. The reactions were analyzed by removal of 0.200 mL aliquots at pre-determined times and mixing the sample with an equivalent volume of 0.100M propionic acid (HPLC internal standard) in water, and filtering the resulting solution through a 10K molecular weight cut-off filter to remove the enzyme. The filtrate was then analyzed by high pressure liquid chromatography on a HPX-87H column (Bio-Rad, 30 cm×7.8 mm) to determine the percent conversion of the N-(alkoxycarbonyl)-trans-4-hydroxy-L-proline methyl ester. Complete hydrolysis of the methyl ester of the N-methoxy-, N-ethoxy-, and N-tert-butoxycarbonyl derivatives occurred in 5 h, 2 h, and 6 h, respectively, and the initial reaction rates were 5.7, 18.7, and 3.3 micromoles/h/mg enzyme catalyst, respectively.

[5] = candida antartica lipase b, 24 h, 51000 µM, pH 7

- share of isomer remaining at 51% conversion [2]: 97.5%
- recovery with no enzyme ([3]; pH 5.0, after 24 h): 95%
- isomer lost without added enzyme [3]: approximately 3%
SMILES: COC(=O)[C@H]1CC(=O)CN1C(=O)OC [KDP(MEMC), N-(methoxycarbonyl)-4-keto-D-proline methyl ester]

- share of isomer remaining at 51% conversion [2]: 2.5%
- isomer lost without added enzyme [3]: approximately 3%
SMILES: COC(=O)[C@@H]1CC(=O)CN1C(=O)OC [KLP(MEMC), N-(methoxycarbonyl)-4-keto-L-proline methyl ester]

- time to complete hydrolysis of the methyl ester ([4]; 0.100M potassium phosphate pH 7.0): 5 h
- initial reaction rate ([4]; pH 7.0): 5.7 micromoles/h/mg enzyme catalyst
- isomer remaining ([1]; candida antartica lipase b, 7 h, 50000 µM, pH 7): 3.2%
SMILES: COC(=O)[C@@H]1C[C@@H](O)CN1C(=O)OC [THLP(MEMC), N-(methoxycarbonyl)-trans-4-hydroxy-L-proline methyl ester]
- isomer remaining ([1]; 50 mM each, 2.1 mg/mL CALB, pH 7.0, 25° C., 24 h): no N-(methoxycarbonyl)-trans-4-hydroxy-L-proline methyl ester remained
- isomer remaining ([1]; 50 mM each, 4.0 mg/mL CALB, pH 7.0, 25° C., 24 h): no N-(methoxycarbonyl)-trans-4-hydroxy-L-proline methyl ester remained

The next lines start with the compound.

SMILES: COC(=O)[C@H]1C[C@@H](O)CN1C(=O)OC [CHDP(MEMC), N-(methoxycarbonyl)-cis-4-hydroxy-D-proline methyl ester]
- methyl ester hydrolysis by CALB ([1]; under reaction conditions): no hydrolysis

SMILES: COC(=O)[C@@H]1C[C@H](O)CN1C(=O)OC [CHLP(MEMC), N-(methoxycarbonyl)-cis-4-hydroxy-L-proline methyl ester]
- isomer remaining ([1]; 50 mM each, 50 mg/mL CALB, pH 7.0, 25° C., 47 h): no N-(methoxycarbonyl)-cis-4-hydroxy-L-proline methyl ester remained
- isomer remaining [1, 5]: 3.0%

SMILES: COC(=O)[C@H]1C[C@H](O)CN1C(=O)OC [THDP(MEMC), N-(methoxycarbonyl)-trans-4-hydroxy-D-proline methyl ester]
- isomer remaining [1, 5]: 82.7%
